{"source": "patent US7973006B2", "about": "“Antibacterial agent based on fatty acid esters of hydroxy carboxylic acid acids” (Purac Biochem B.V., priority 2007, dated 2011)", "key": {"[1]": {"system": "Escherichia coli (ATCC 8739)", "test": "Bioscreen growth rate in brain heart infusion broth with lactylate and polylysine", "assay_type": "cell-based"}, "[2]": {"system": "Salmonella typhimurium (ATCC 13311)", "test": "Bioscreen growth rate in brain heart infusion broth with lactylate and polylysine", "assay_type": "cell-based", "description": "(§1) The following cultures were used in a study: Escherichia coli serotype O157:H7 (ATCC 700728), Salmonella typhimurium (ATCC 13311) and Salmonella entiritidis (ATCC 13076). All cultures were transferred daily in screw-capped tubes containing 10 ml brain heart infusion broth. Cultures were incubated at 30° C. without agitation. Brain heart infusion broth was prepared with increasing amounts of lactylate and polylysine. The concentration range for the caprylic (C8) lactylate was as from 0 to 0.45% in 10 0.05% steps, for the capric (C10) lactylate was as from 0 to 0.09% in 10 0.01% steps, for the lauric (C12) lactylate was as from 0 to 0.009% in 10 0.001% steps and for the tetradecanoic (C14) lactylate was as from 0 to 0.009% in 10 0.001% steps. Lactylates were combined with polylysine. The concentration range for the polylysine was as from 0 to 0.0675% in 10 0.0075% steps. […] The pH of the media was adjusted to 6.1-6.2 with 1 N HCl or 1 N NaOH. Media were prepared in 10 ml quantities and sterilized by filtration. 300 μl of each medium was transferred to a panel of a sterile Bioscreen® honeycomb 100 well plate. Well plates were inoculated with 5 μl of a culture that was grown overnight in brain heart infusion broth using a sterile 5 μl repeating dispenser. Growth rates were determined with a Bioscreen® C that kinetically measures the development of turbidity by vertical photometry. The plates were incubated for 16-24 hours at 37° C., the optical density of the cultures was measured every 30 minutes at 420-580 nm using a wide band filter. The Bioscreen® measures at set time intervals the optical density of the cultures. […] The purpose of further data processing is to ascertain whether two […] act independently of each other or whether they stimulate each other in their inhibitory action (synergy) or cancel out each other inhibitory effect (antagonism). When a certain compound has no effect on an organism the specific growth rate of this organism (μ) can be expressed as a function (f) of the growth limiting substrate concentration (s) by for example the Monod equation, which reads: μ=μmax·s/(Ks+s), where μmax represents the maximum specific growth rate, s the standing concentration of the growth limiting substrate in the medium and Ks the substrate concentration where μ=0.5μmax. However, when the presence of an inhibitor P affects cell growth the function f for μ must be modified i.e. μ=f(s,p), where p represents the concentration of inhibitor P. Numerous studies of growth inhibition kinetics of bacteria have shown that many inhibitors behave as non-competitive inhibitors. This implies that only the maximum specific growth rate (μmax) value and not the affinity (Ks) is affected. Therefore the specific growth rate in the presence of inhibitor can be written as: μ=μi·s/(Ks+s), where μi is the maximal specific growth rate in the presence of a inhibitor P. The relationship between μi and μmax and the concentration of the inhibitor P was describes using the Logistic Dose Response equation, which reads: μi/μmax=1/(1+(p/p0.5)^b) (Jungbauer, A. (2001). The logistic dose response function: a robust fitting function for transition phenomena in life sciences. J. Clinical Ligand Assay 24: 270-274). In this equation p represents the concentration of inhibitor P and p0.5 the concentration of P where μi=0.5μmax; μmax is the maximum specific growth rate that is the specific growth rate in the absence of inhibitor P, b is a dimensionless quantity, which determines the relationship between μi and p. Combining the Monod and Logistic Dose Response equation it can be written as: μ=μmax(s/Ks+s)/(1+(p/p0.5)^b). In batch culture where s is usually many times higher than Ks this equation reduces to μ=μmax/(1+(p/p0.5)^b). When comparing different organisms grown under the same conditions, or the same organism grown under different conditions, it is more meaningful to use relative growth rate, rather than absolute growth rates as standards of comparison. […]"}, "[3]": {"system": "Salmonella entiritidis (ATCC 13076)", "test": "Bioscreen growth rate in brain heart infusion broth with lactylate and polylysine", "assay_type": "cell-based", "description": "as §1"}, "[4]": {"system": "Escherichia coli serotype O157:H7 (ATCC 700728)", "test": "Bioscreen growth rate in brain heart infusion broth with lactylate and polylysine", "assay_type": "cell-based", "description": "as §1"}, "[5]": {"system": "Salmonella Typhimurium ATCC 13311", "test": "Decontamination of inoculated chicken filets, surviving cell count", "assay_type": "cell-based", "conditions": "for Salmonella Typhimurium on chicken filets: individual, 12° C.", "description": "Salmonella Typhimurium ATCC 13311 and Escherichia coli O157:H7 ATCC 700728 were grown in sterile screw capped tubes containing Brain heart infusion broth for 18-24 hours at 30° C.\nChicken filets (150-200 g) were trimmed, vacuum packaged and stored at 4-7° C. Filets were subsequently sterilized by gamma-irradiation (average radiation dose: 12 kiloGray).\n1 ml of an overnight culture of Salmonella Typhimurium in brain heart infusion both was diluted 1000 times with sterile 0.8% (w/v) NaCl and 0.1% (w/v) peptone. 0.5 ml of this diluted culture was transferred to one side of the filet. The inoculum was distributed by gently rubbing the entire surface of the filet. This was repeated for the other side of the filet. Inoculation was carried out at 6° C. Inoculated filets were rested for 60-120 min at 6° C. to allow attachment of the cells.\nChicken filets were briefly dipped and completely submersed in 1 l of a solution containing the appropriate formulation and then transferred to 400 ml Bagfilter® lateral filter bags (Interscience, St Nom, France) containing 5 ml of the appropriate formulation. Bags were vacuum-sealed and incubated at 12° C. for up to 7 days until further analysis. Time zero samples were plated within 30 min after dipping.\nSurviving Salmonella Typhimurium on chicken filets were counted as follows: a sealed bag was opened and to this was added 2 times the net weight sterile dilution fluid ([…] NaCl and 0.1% (w/v) bacteriological peptone). Duplicate filets were homogenized for 1 min. in a Bagmixer® 400 paddle labblender (Interscience, St Nom, France). 50 μl of the homogenates or dilutions thereof were plated on duplicate Salmonella chromogenic agar plates (CM1007) with cefsulodin, novobiocin supplement (SR0194) (Oxoid, Basingstoke, United Kingdom) using an Eddyjet type 1.23 spiral plater (IUL Instruments, Barcelona, Spain). Plates were incubated for 24-48 hours at 30° C. and then counted. Salmonella numbers were expressed as log10 colony forming units per ml homogenate.\nThe compositions of the formulations that were studied are shown in Table 2. ε-Polylysine and lactylates were dissolved in demineralised water and sterilized for 20 min at 120° C."}, "Candida albicans": {"system": "Candida albicans", "conditions": "EP 1000542; cited from earlier work"}, "Enterococcus faecalis": {"system": "Enterococcus faecalis", "conditions": "EP 1000542; cited from earlier work"}, "[6]": {"conditions": "0.0225% (w/w) in broth, pH 6.1-6.2, 37° C."}, "[7]": {"conditions": "0.45% (w/w) in broth, pH 6.1-6.2, 37° C."}}, "note": "Where “and” joins values, the source holds several entries; their conditions need not be identical. Identical values can stand only once."}
{"compound": "CCCCCCCCCC(=O)OC(C)C(=O)O", "note": "(centres unmarked) [C10-lactylate, decanoyllactylate]", "values": [{"measurement": "Observed Relative Growth Rate", "setting": "[1]; 0.09% (w/w) in broth", "value": 0.721}, {"measurement": "Observed Relative Growth Rate", "setting": "[2]; 0.09% (w/w) in broth", "value": 0.904}, {"measurement": "Observed Relative Growth Rate", "setting": "[3]; 0.09% (w/w) in broth", "value": 0.912}, {"measurement": "Observed Relative Growth Rate", "setting": "[4]; 0.09% (w/w) in broth", "value": 0.766}, {"measurement": "Salmonella Typhimurium on chicken filets", "setting": "[5]; 0.05% (w/v), day 0", "value": "3.75 log10 colony forming units (CFU)/ml"}, {"measurement": "Salmonella Typhimurium on chicken filets", "setting": "[5]; 0.05% (w/v), day 1", "value": "3.95 log10 colony forming units (CFU)/ml"}, {"measurement": "Salmonella Typhimurium on chicken filets", "setting": "[5]; 0.05% (w/v), day 2", "value": "4.45 log10 colony forming units (CFU)/ml"}, {"measurement": "Salmonella Typhimurium on chicken filets", "setting": "[5]; 0.05% (w/v), day 5", "value": "6.87 log10 colony forming units (CFU)/ml"}, {"measurement": "Salmonella Typhimurium on chicken filets", "setting": "[5]; 0.05% (w/v), day 6", "value": "6.83 log10 colony forming units (CFU)/ml"}, {"measurement": "Salmonella Typhimurium on chicken filets", "setting": "[5]; 0.05% (w/v), day 7", "value": "7.52 log10 colony forming units (CFU)/ml"}]}
{"compound": "CCCCCCCCCC(=O)OC(C)C(=O)OC(C)C(=O)[O-].[Na+]", "note": "(centres unmarked) [sodium salt of capryl-lactyl-lactylate]", "values": [{"measurement": "antimicrobial activity", "setting": "Candida albicans", "value": "some antimicrobial activity"}, {"measurement": "antimicrobial activity", "setting": "Enterococcus faecalis", "value": "some antimicrobial activity"}]}
{"compound": "poly(imino(2-amino-1-oxo-1,6-hexanediyl)) [ε-polylysine]", "values": [{"measurement": "Observed Relative Growth Rate", "setting": "[1]; [6]", "value": "0.4935 and 0.7370 and 0.4395 and 0.68"}, {"measurement": "Observed Relative Growth Rate", "setting": "[2]; [6]", "value": "0.943 and 0.9725 and 0.9520"}, {"measurement": "Observed Relative Growth Rate", "setting": "[3]; [6]", "value": "0.9645 and 0.971 and 0.9035"}, {"measurement": "Salmonella Typhimurium on chicken filets", "setting": "[5]; 0.1% (w/v), day 0", "value": "3.04 log10 colony forming units (CFU)/ml"}, {"measurement": "Salmonella Typhimurium on chicken filets", "setting": "[5]; 0.1% (w/v), day 1", "value": "2.04 log10 colony forming units (CFU)/ml"}, {"measurement": "Salmonella Typhimurium on chicken filets", "setting": "[5]; 0.1% (w/v), day 2", "value": "2.15 log10 colony forming units (CFU)/ml"}, {"measurement": "Salmonella Typhimurium on chicken filets", "setting": "[5]; 0.1% (w/v), day 5", "value": "4.04 log10 colony forming units (CFU)/ml"}, {"measurement": "Salmonella Typhimurium on chicken filets", "setting": "[5]; 0.1% (w/v), day 6", "value": "4.26 log10 colony forming units (CFU)/ml"}, {"measurement": "Salmonella Typhimurium on chicken filets", "setting": "[5]; 0.1% (w/v), day 7", "value": "5.35 log10 colony forming units (CFU)/ml"}, {"measurement": "reduction in numbers", "setting": "[5]; single addition, after one day of incubation", "value": 2, "unit": "log10"}]}
{"compound": "CCCCCCCC(=O)OC(C)C(=O)[O-].[Na+]", "note": "(centres unmarked) [C8-lactylate, sodium salt of octanoyllactylate]", "values": [{"measurement": "Observed Relative Growth Rate", "setting": "[1]; [7]", "value": 0.5625}, {"measurement": "Observed Relative Growth Rate", "setting": "[2]; [7]", "value": 0.4763}, {"measurement": "Observed Relative Growth Rate", "setting": "[3]; [7]", "value": 0.58}, {"measurement": "Observed Relative Growth Rate", "setting": "[4]; [7]", "value": 0.657}, {"measurement": "Salmonella Typhimurium on chicken filets", "setting": "[5]; 0.2% (w/v), day 0", "value": "3.85 log10 colony forming units (CFU)/ml"}, {"measurement": "Salmonella Typhimurium on chicken filets", "setting": "[5]; 0.2% (w/v), day 1", "value": "4.1 log10 colony forming units (CFU)/ml"}, {"measurement": "Salmonella Typhimurium on chicken filets", "setting": "[5]; 0.2% (w/v), day 2", "value": "4.29 log10 colony forming units (CFU)/ml"}, {"measurement": "Salmonella Typhimurium on chicken filets", "setting": "[5]; 0.2% (w/v), day 5", "value": "6.27 log10 colony forming units (CFU)/ml"}, {"measurement": "Salmonella Typhimurium on chicken filets", "setting": "[5]; 0.2% (w/v), day 6", "value": "7.35 log10 colony forming units (CFU)/ml"}, {"measurement": "Salmonella Typhimurium on chicken filets", "setting": "[5]; 0.2% (w/v), day 7", "value": "7.42 log10 colony forming units (CFU)/ml"}]}
